# System: cortex metabolites
# Assay: Metabolomic analysis of cortex
# Assay type: in vivo, mice
# Protocol: Metabolomic analyses were conducted at Metabolon (Durham, NC, USA) as described previously. For statistical analyses and data display, any missing values were assumed to be below the limits of detection and imputed with the compound minimum (minimum value imputation). An estimate of the FDR (Q value) was calculated to take into account the multiple comparisons that normally occur in metabolomics-based studies, with Q < 0.05 used as an indication of high confidence in a result. The MetaboAnalyst tool was used to generate heat maps.
smiles,measurement,setting,value
Cc1ccc(N(/N=C/c2cccc(OC(F)(F)F)c2)C(=O)C(F)(F)F)c(C)c1 [CAD-31],monoacylglycerols in brain,"AD mice, only significant drug effect",an increase in monoacylglycerols
same,Long-chain fatty acids and monoacylglycerols in brain,WT mice,decreased
same,"acetyl-CoA, ketone bodies, and acyl carnitines in brain",WT mice,increased
same,ergothioneine Fold Change,"cortex, AD+31/AD, p-value 8.4373e-5",0.57
same,N-acetylalanine Fold Change,"cortex, AD+31/AD, p-value 0.0006",0.84
same,glycerate Fold Change,"cortex, AD+31/AD, p-value 0.0086",0.65
same,2-oleoylglycerol (18:1) Fold Change,"cortex, AD+31/AD, p-value 0.0105",1.51
same,1-palmitoylglycerol (16:0) Fold Change,"cortex, AD+31/AD, p-value 0.0153",1.41
same,2-methylcitrate/homocitrate Fold Change,"cortex, AD+31/AD, p-value 0.0221",1.13
same,hypoxanthine Fold Change,"cortex, AD+31/AD, p-value 0.0231",0.89
same,N-acetylneuraminate Fold Change,"cortex, AD+31/AD, p-value 0.0277",0.85
same,2-palmitoylglycerol (16:0) Fold Change,"cortex, AD+31/AD, p-value 0.031",1.57
same,1-palmitoyl-GPG (16:0)* Fold Change,"cortex, AD+31/AD, p-value 0.0317",1.85
same,azelate (nonanedioate) Fold Change,"cortex, AD+31/AD, p-value 0.0374",0.73
same,ribose Fold Change,"cortex, AD+31/AD, p-value 0.0378",0.84
same,arachidate (20:0) Fold Change,"cortex, AD+31/AD, p-value 0.0406",1.47
same,N-delta-acetylornithine Fold Change,"cortex, AD+31/AD, p-value 0.0407",1.32
same,3-sulfo-nervonoyl-galactosylceramide (d18:1/24:1) Fold Change,"cortex, AD+31/AD, p-value 0.0443",1.08
same,1-oleoylglycerol (18:1) Fold Change,"cortex, AD+31/AD, p-value 0.0513",1.46
same,1-stearoyl-GPG (18:0) Fold Change,"cortex, AD+31/AD, p-value 0.055",1.87
same,N-acetylglutamate Fold Change,"cortex, AD+31/AD, p-value 0.0559",0.92
same,linoleoyl ethanolamide Fold Change,"cortex, AD+31/AD, p-value 0.0645",1.62
same,N-acetylglucosaminylasparagine Fold Change,"cortex, AD+31/AD, p-value 0.0691",0.92
same,tricosenoate (23:1) Fold Change,"cortex, AD+31/AD, p-value 0.0711",1.54
same,2'-deoxycytidine Fold Change,"cortex, AD+31/AD, p-value 0.088",0.85
same,nonadecanoate (19:0) Fold Change,"cortex, AD+31/AD, p-value 0.0981",1.35
same,palmitate (16:0) Fold Change,"cortex, AD+31/AD, p-value 0.1021",1.36
same,erucate (22:1n9) Fold Change,"cortex, AD+31/AD, p-value 0.1047",1.44
same,5-methylthioadenosine (MTA) Fold Change,"cortex, AD+31/AD, p-value 0.1124",1.12
same,stearate (18:0) Fold Change,"cortex, AD+31/AD, p-value 0.1164",1.35
same,eicosenoate (20:1) Fold Change,"cortex, AD+31/AD, p-value 0.1281",1.43
same,oleate/vaccenate (18:1) Fold Change,"cortex, AD+31/AD, p-value 0.1397",1.39
same,adrenate (22:4n6) Fold Change,"cortex, AD+31/AD, p-value 0.1408",1.56
same,1-oleoyl-2-linoleoyl-GPC (18:1/18:2)* Fold Change,"cortex, AD+31/AD, p-value 0.1443",1.12
same,"glutamate, gamma-methyl ester Fold Change","cortex, AD+31/AD, p-value 0.157",0.73
same,docosadienoate (22:2n6) Fold Change,"cortex, AD+31/AD, p-value 0.1608",1.38
same,beta-citrylglutamate Fold Change,"cortex, AD+31/AD, p-value 0.1678",1.19
same,methylphosphate Fold Change,"cortex, AD+31/AD, p-value 0.1679",1.13
same,pyroglutamine* Fold Change,"cortex, AD+31/AD, p-value 0.1791",1.11
same,glycerophosphoglycerol Fold Change,"cortex, AD+31/AD, p-value 0.1865",0.93
same,dihomo-linoleate (20:2n6) Fold Change,"cortex, AD+31/AD, p-value 0.1892",1.35
same,docosatrienoate (22:3n3) Fold Change,"cortex, AD+31/AD, p-value 0.1893",1.69
same,arabinose Fold Change,"cortex, AD+31/AD, p-value 0.2015",0.93
same,UDP-glucose Fold Change,"cortex, AD+31/AD, p-value 0.209",1.28
same,UDP-N-acetylglucosamine/galactosamine Fold Change,"cortex, AD+31/AD, p-value 0.2104",0.95
same,1-palmitoyl-2-gamma-linolenoyl-GPC (16:0/18:3n6)* Fold Change,"cortex, AD+31/AD, p-value 0.213",0.91
same,1-arachidonylglycerol (20:4) Fold Change,"cortex, AD+31/AD, p-value 0.2257",1.2
same,hippurate Fold Change,"cortex, AD+31/AD, p-value 0.2339",1.5
same,mead acid (20:3n9) Fold Change,"cortex, AD+31/AD, p-value 0.2367",1.39
same,2-hydroxydecanoate Fold Change,"cortex, AD+31/AD, p-value 0.2531",0.84
same,glycerol 3-phosphate Fold Change,"cortex, AD+31/AD, p-value 0.2532",0.91
same,10-nonadecenoate (19:1n9) Fold Change,"cortex, AD+31/AD, p-value 0.2636",1.26
same,methionine Fold Change,"cortex, AD+31/AD, p-value 0.2665",1.1
same,1-docosahexaenoylglycerol (22:6) Fold Change,"cortex, AD+31/AD, p-value 0.2822",1.21
same,3-hydroxy-3-methylglutarate Fold Change,"cortex, AD+31/AD, p-value 0.2908",0.95
same,anserine Fold Change,"cortex, AD+31/AD, p-value 0.2924",1.14
same,N-formylmethionine Fold Change,"cortex, AD+31/AD, p-value 0.3078",0.94
same,3-hydroxybutyrylcarnitine (2) Fold Change,"cortex, AD+31/AD, p-value 0.3124",1.37
same,acetylphosphate Fold Change,"cortex, AD+31/AD, p-value 0.3359",0.91
same,1-methylimidazoleacetate Fold Change,"cortex, AD+31/AD, p-value 0.3448",0.9
same,N-acetylmethionine Fold Change,"cortex, AD+31/AD, p-value 0.3576",0.96
same,arachidonoyl ethanolamide Fold Change,"cortex, AD+31/AD, p-value 0.3632",1.06
same,deoxycarnitine Fold Change,"cortex, AD+31/AD, p-value 0.3877",0.94
same,palmitoylcholine Fold Change,"cortex, AD+31/AD, p-value 0.42",1.09
same,putrescine Fold Change,"cortex, AD+31/AD, p-value 0.4207",1.08
same,adenosine 5'-diphosphoribose (ADP-ribose) Fold Change,"cortex, AD+31/AD, p-value 0.4258",0.94
same,margarate (17:0) Fold Change,"cortex, AD+31/AD, p-value 0.4323",1.24
same,phenol sulfate Fold Change,"cortex, AD+31/AD, p-value 0.4423",1.28
same,acetylcarnitine Fold Change,"cortex, AD+31/AD, p-value 0.4578",1.25
same,lactate Fold Change,"cortex, AD+31/AD, p-value 0.4961",1.08
same,acetyl CoA Fold Change,"cortex, AD+31/AD, p-value 0.4998",1.33
same,3-hydroxybutyrate (BHBA) Fold Change,"cortex, AD+31/AD, p-value 0.5074",1.29
same,2-hydroxystearate Fold Change,"cortex, AD+31/AD, p-value 0.5156",1.2
same,gamma-glutamylhistidine Fold Change,"cortex, AD+31/AD, p-value 0.5232",0.9
same,gulonate* Fold Change,"cortex, AD+31/AD, p-value 0.5547",0.96
same,1-oleoyl-2-arachidonoyl-GPI (18:1/20:4) * Fold Change,"cortex, AD+31/AD, p-value 0.5635",1.02
same,6-phosphogluconate Fold Change,"cortex, AD+31/AD, p-value 0.6142",0.86
same,adenosine 2'-monophosphate (2'-AMP) Fold Change,"cortex, AD+31/AD, p-value 0.6144",1.09
same,glucosamine-6-phosphate Fold Change,"cortex, AD+31/AD, p-value 0.6542",1.06
same,1-palmitoyl-2-palmitoleoyl-GPC (16:0/16:1)* Fold Change,"cortex, AD+31/AD, p-value 0.6549",0.98
same,1-(1-enyl-stearoyl)-2-arachidonoyl-GPE (P-18:0/20:4)* Fold Change,"cortex, AD+31/AD, p-value 0.6588",1.01
same,mannose Fold Change,"cortex, AD+31/AD, p-value 0.6613",0.9
same,UDP-galactose Fold Change,"cortex, AD+31/AD, p-value 0.6737",1.03
same,phosphoethanolamine Fold Change,"cortex, AD+31/AD, p-value 0.6749",0.98
same,"sphingomyelin (d18:1/18:1, d18:2/18:0) Fold Change","cortex, AD+31/AD, p-value 0.6798",1.03
same,sedoheptulose-7-phosphate Fold Change,"cortex, AD+31/AD, p-value 0.7025",0.98
same,1-stearoyl-GPC (18:0) Fold Change,"cortex, AD+31/AD, p-value 0.7211",0.94
same,1-palmitoyl-2-oleoyl-GPS (16:0/18:1) Fold Change,"cortex, AD+31/AD, p-value 0.7273",1.01
same,glucose 6-phosphate Fold Change,"cortex, AD+31/AD, p-value 0.7454",0.99
same,prolylglycine Fold Change,"cortex, AD+31/AD, p-value 0.7821",0.99
same,glycerophosphoethanolamine Fold Change,"cortex, AD+31/AD, p-value 0.7927",1.02
same,succinylcarnitine Fold Change,"cortex, AD+31/AD, p-value 0.8024",0.95
same,glutamate Fold Change,"cortex, AD+31/AD, p-value 0.8146",0.99
same,N-acetyl-glucosamine 1-phosphate Fold Change,"cortex, AD+31/AD, p-value 0.868",0.98
same,O-methyltyrosine Fold Change,"cortex, AD+31/AD, p-value 0.8778",0.98
same,galactose 1-phosphate Fold Change,"cortex, AD+31/AD, p-value 0.8947",1.05
same,17-methylstearate Fold Change,"cortex, AD+31/AD, p-value 0.9061",1
same,1-stearoyl-2-oleoyl-GPI (18:0/18:1)* Fold Change,"cortex, AD+31/AD, p-value 0.9089",1
same,lysine Fold Change,"cortex, AD+31/AD, p-value 0.9193",1
same,fructose-6-phosphate Fold Change,"cortex, AD+31/AD, p-value 0.9322",1.01
same,coenzyme A Fold Change,"cortex, AD+31/AD, p-value 0.937",1.03
same,oleoyl-oleoyl-glycerol (18:1/18:1) [2]* Fold Change,"cortex, AD+31/AD, p-value 0.9411",1

# Reference: publication PMC5513091, “A novel Alzheimer’s disease drug candidate targeting inflammation and fatty acid metabolism” (Alzheimer's Research & Therapy, 2017)
